Assay results as given in patent US10752616B2, “Bicycloheteroaryl-heteroaryl-benzoic acid compounds as retinoic acid receptor beta (RARβ) agonists” (King's College London, priority 2014, dated 2020).
pEC50: −log10 of the molar value.

Assays:
Format in all cases: cell-based
[1] = target: RARβ (Mus musculus (Mouse), UniProt P22605); assay: Transactivation assay for RARβ (gal4-RAR fusion, pFR-luc reporter, COS-7 cells), Table 2; details: COS-7 reporter, mean of three or more determinations, species not stated (method: mouse or human)
RARβ, sequence (P22605 210-444): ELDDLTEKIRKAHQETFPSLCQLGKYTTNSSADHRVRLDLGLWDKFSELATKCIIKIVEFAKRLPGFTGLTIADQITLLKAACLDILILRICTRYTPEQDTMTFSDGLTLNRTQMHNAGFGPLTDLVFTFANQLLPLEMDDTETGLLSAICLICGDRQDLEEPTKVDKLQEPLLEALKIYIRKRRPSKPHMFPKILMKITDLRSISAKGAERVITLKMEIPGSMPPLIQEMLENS
Description: (§1) Transcriptional transactivation assays were performed with gal4 fusion receptor constructs, created using each of the RAR ligand binding domains of either mouse or human, co-transfected with the pFR-luc (Stratagene) reporter construct in COS-7 cells.
(§2) Briefly, on day 1, 96 well plates were seeded with 8000 cells per well then left to recover overnight. On day 2, the cells were co-transfected with 100 ng of reporter plasmid and 10 ng of the appropriate receptor plasmid per well using lipofectamine (Invitrogen). On day 3, the lipofectamine containing media was replaced by a DMEM without phenol red, followed by the addition of test compound dissolved in 1 μL of DMSO to each well's 100 μL total volume. Finally, on day 4, the cells were lysed and their luciferase substrate was provided by the BrightGlo™ reagent (Promega), the plates were then read on the MicroBeta TriLux™ (Perkin Elmer).
(§3) Data for test compounds are quoted as EC50 values. Where replicate data has been generated, the data are quoted as the mean EC50 from the separate experiments.
(§4) EC50's values are reported as mean values of three or more determinations.

[2] = target: RARα (Mus musculus (Mouse), UniProt P11416); assay: Transactivation assay for RARα (gal4-RAR fusion, pFR-luc reporter, COS-7 cells), Table 2; details: for RARα/RARβ ratio: fold-selectivity for RARβ over RARα, >1 = selective for RARβ
RARα, sequence (P11416 183-417): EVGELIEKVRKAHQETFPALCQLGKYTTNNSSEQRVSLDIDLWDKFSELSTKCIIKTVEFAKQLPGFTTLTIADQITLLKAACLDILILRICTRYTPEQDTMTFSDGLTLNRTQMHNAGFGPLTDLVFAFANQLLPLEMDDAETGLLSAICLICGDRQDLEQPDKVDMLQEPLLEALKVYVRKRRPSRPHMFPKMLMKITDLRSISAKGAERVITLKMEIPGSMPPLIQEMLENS
Description: as §1, §2, §3, §4

[3] = target: RARγ (Mus musculus (Mouse), UniProt P18911); assay: Transactivation assay for RARγ (gal4-RAR fusion, pFR-luc reporter, COS-7 cells), Table 2; details: for RARγ/RARβ ratio: fold-selectivity for RARβ over RARγ, >1 = selective for RARβ
RARγ, sequence (P18911 185-419): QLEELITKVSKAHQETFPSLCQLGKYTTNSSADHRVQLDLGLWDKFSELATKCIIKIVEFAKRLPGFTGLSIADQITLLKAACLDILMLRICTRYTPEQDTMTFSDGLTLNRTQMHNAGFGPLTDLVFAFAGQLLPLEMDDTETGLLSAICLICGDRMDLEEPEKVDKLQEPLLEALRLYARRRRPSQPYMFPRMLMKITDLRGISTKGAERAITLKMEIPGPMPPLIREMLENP
Description: as §1, §2, §3, §4

[4] = Table 2, COS-7 reporter, mean of three or more determinations, inactive = no agonist action at highest concentration tested

| pEC50 [1] | pEC50 [2, 4] | RARα/RARβ ratio [2] | pEC50 [3, 4] | RARγ/RARβ ratio [3] | RARα EC50 [2, 4] | RARγ EC50 [3, 4] | SMILES |
| --- | --- | --- | --- | --- | --- | --- | --- |
| 7.89 | 7.35 | 3.5 | 7.64 | 1.8 |  |  | Cc1ccc(C)c2oc(-c3noc(-c4ccc(C(=O)O)c(F)c4)n3)cc12 [BHBA-033, 4-(3-(4,7-Dimethylbenzofuran-2-yl)-1,2,4-oxadiazol-5-yl)-2-fluorobenzoic acid] |
| 8.09 | 7.59 | 3 | 8.08 | 1 |  |  | Cc1ccc(C)c2oc(-c3noc(-c4ccc(C(=O)O)cc4)n3)cc12 [BHBA-028, 4-(3-(4,7-Dimethylbenzofuran-2-yl)-1,2,4-oxadiazol-5-yl)benzoic acid] |
| 8.57 | 7.74 | 7 | 8.22 | 2 |  |  | Cc1ccc(Cl)c2cc(-c3nc(-c4ccc(C(=O)O)cc4)no3)oc12 [BHBA-016, 4-(5-(4-Chloro-7-methylbenzofuran-2-yl)-1,2,4-oxadiazol-3-yl)benzoic acid] |
| 8.66 | 7.80 |  | 8.08 |  |  |  | Cc1ccc(C)c2oc(-c3nc(-c4ccc(C(=O)O)c(F)c4)no3)cc12 [BHBA-007, 2-Fluoro-4-(5-(4,7-dimethylbenzofuran-2-yl)-1,2,4-oxadiazol-3-yl)benzoic acid] |
| 8.00 |  |  |  |  | inactive | inactive | Cc1ccc(C)c2oc(-c3nc(-c4ccc(C(=O)O)cc4C(F)(F)F)no3)cc12 [BHBA-004, 4-(5-(4,7-Dimethylbenzofuran-2-yl)-1,2,4-oxadiazol-3-yl)-3-(trifluoromethyl)benzoic acid] |
| 8.10 | 7.22 |  | 7.64 |  |  |  | O=C(O)c1ccc(-c2noc(-c3cc4c(C(F)(F)F)ccc(F)c4o3)n2)c(Cl)c1 [BHBA-020, 3-Chloro-4-(5-(7-fluoro-4-(trifluoromethyl)benzofuran-2-yl)-1,2,4-oxadiazol-3-yl)benzoic acid] |
| 7.89 | 7.33 |  | 7.11 |  |  |  | Cc1ccc(C)c2oc(-c3nc(-c4ccc(C(=O)O)c(F)c4)no3)nc12 [BHBA-026, 4-(5-(4,7-Dimethylbenzo[d]oxazol-2-yl)-1,2,4-oxadiazol-3-yl)-2-fluorobenzoic acid] |
| 8.29 | 7.72 | 3.7 | 8.21 | 1.2 |  |  | Cc1ccc(C)c2oc(-c3nc(-c4ccc(C(=O)O)cc4)ns3)cc12 [BHBA-038, 4-(5-(4,7-Dimethylbenzofuran-2-yl)-1,2,4-thiadiazol-3-yl)benzoic acid] |
| 8.38 | 7.49 | 7.6 | 7.96 | 2.6 |  |  | Cc1ccc(C)c2c(C)c(-c3nc(-c4ccc(C(=O)O)cc4Cl)no3)oc12 [BHBA-009, 3-Chloro-4-(5-(3,4,7-trimethylbenzofuran-2-yl)-1,2,4-oxadiazol-3-yl)benzoic acid] |
| 7.85 | 7.05 | 6 | 7.60 | 2 |  |  | Cc1cc(-c2noc(-c3cc4c(C)ccc(C)c4o3)n2)ccc1C(=O)O [BHBA-006, 2-Methyl-4-(5-(4,7-dimethylbenzofuran-2-yl)-1,2,4-oxadiazol-3-yl)benzoic acid] |
| 8.05 | 7.21 | 6.7 | 7.60 | 2.7 |  |  | Cc1ccc(C)c2sc(-c3nc(-c4ccc(C(=O)O)cc4)no3)nc12 [BHBA-027, 4-(5-(4,7-Dimethylbenzo[d]thiazol-2-yl)-1,2,4-oxadiazol-3-yl)benzoic acid] |
| 7.39 | 6.82 |  | 6.85 |  |  |  | Cc1ccc(Cl)c2cc(-c3nc(-c4ccc(C(=O)O)cc4Cl)no3)oc12 [BHBA-018, 3-Chloro-4-(5-(4-chloro-7-methylbenzofuran-2-yl)-1,2,4-oxadiazol-3-yl)benzoic acid] |
| 7.35 | 7.04 | 2 | 7.22 | 1.3 |  |  | Cc1ccc(C)c2oc(-c3nnc(-c4ccc(C(=O)O)c(F)c4)o3)cc12 [BHBA-037, 4-(5-(4,7-Dimethylbenzofuran-2-yl)-1,3,4-oxadiazol-2-yl)-2-fluorobenzoic acid] |
| 8.51 | 8.03 | 3 | 8.64 | 0.74 |  |  | Cc1ccc(C)c2oc(-c3nsc(-c4ccc(C(=O)O)cc4)n3)cc12 [BHBA-042, 4-(3-(4,7-Dimethylbenzofuran-2-yl)-1,2,4-thiadiazol-5-yl)benzoic acid] |
| 8.47 | 7.52 | 9 | 8.20 | 2 |  |  | Cc1ccc(C)c2sc(-c3nc(-c4ccc(C(=O)O)cc4)no3)cc12 [BHBA-021, 4-(5-(4,7-Dimethylbenzo[b]thiophen-2-yl)-1,2,4-oxadiazol-3-yl)benzoic acid] |
| 7.62 | 6.74 | 7.5 | 7.33 | 2 |  |  | Cc1ccc(C)c2oc(-c3nc(-c4ccc(C(=O)O)cc4Cl)no3)nc12 [BHBA-024, 3-Chloro-4-(5-(4,7-dimethylbenzo[d]oxazol-2-yl)-1,2,4-oxadiazol-3-yl)benzoic acid] |
| 8.54 | 7.64 |  | 7.92 |  |  |  | Cc1ccc(Cl)c2oc(-c3nc(-c4ccc(C(=O)O)cc4)no3)cc12 [BHBA-015, 4-(5-(7-Chloro-4-methylbenzofuran-2-yl)-1,2,4-oxadiazol-3-yl)benzoic acid] |
| 8.60 | 7.72 | 7.6 | 8.28 | 2 |  |  | O=C(O)c1ccc(-c2noc(-c3cc4c(C(F)(F)F)ccc(F)c4o3)n2)cc1 [BHBA-019, 4-(5-(7-Fluoro-4-(trifluoromethyl)benzofuran-2-yl)-1,2,4-oxadiazol-3-yl)benzoic acid] |
| 8.70 | 7.92 |  | 7.96 |  |  |  | O=C(O)c1ccc(-c2noc(-c3cc4c(Cl)ccc(Cl)c4o3)n2)cc1F [BHBA-014, 2-Fluoro-4-(5-(4,7-dichlorobenzofuran-2-yl)-1,2,4-oxadiazol-3-yl)benzoic acid] |
| 7.77 | 6.82 | 8.8 | 7.38 | 2.5 |  |  | Cc1ccc(C)c2oc(-c3noc(-c4ccc(C(=O)O)cc4Cl)n3)cc12 [BHBA-031, 3-Chloro-4-(3-(4,7-dimethylbenzofuran-2-yl)-1,2,4-oxadiazol-5-yl)benzoic acid] |
| 8.54 | 7.60 | 8 | 9.28 | 0.18 |  |  | Cc1ccc(C(C)C)c2cc(-c3nc(-c4ccc(C(=O)O)cc4)no3)oc12 [BHBA-010, 4-(5-(4-Isopropyl-7-methylbenzofuran-2-yl)-1,2,4-oxadazol-3-yl)benzoic acid] |
| 8.37 | 7.59 |  | 7.85 |  |  |  | O=C(O)c1ccc(-c2noc(-c3cc4c(Cl)ccc(Cl)c4o3)n2)cc1 [BHBA-011, 4-(5-(4,7-Dichlorobenzofuran-2-yl)-1,2,4-oxadiazol-3-yl)benzoic acid] |
| 8.70 | 7.59 | 13 | 8.47 | 1.7 |  |  | Cc1ccc(C)c2oc(-c3nsc(-c4ccc(C(=O)O)c(F)c4)n3)cc12 [BHBA-044, 4-(3-(4,7-Dimethylbenzofuran-2-yl)-1,2,4-thiadiazol-5-yl)-2-fluorobenzoic acid] |
| 8.44 | 7.19 |  | 7.89 |  |  |  | Cc1ccc(C)c2oc(-c3nc(-c4ccc(C(=O)O)cc4Cl)ns3)cc12 [BHBA-039, 3-Chloro-4-(5-(4,7-dimethylbenzofuran-2-yl)-1,2,4-thiadiazol-3-yl)benzoic acid] |
| 7.96 | 7.14 |  | 6.89 |  |  |  | Cc1cc(-c2nsc(-c3cc4c(C)ccc(C)c4o3)n2)ccc1C(=O)O [BHBA-040, 4-(5-(4,7-Dimethylbenzofuran-2-yl)-1,2,4-thiadiazol-3-yl)-2-methylbenzoic acid] |
| 7.55 | 6.65 | 8 | 7.24 | 2.1 |  |  | Cc1ccc(C)c2oc(-c3nnc(-c4ccc(C(=O)O)cc4Cl)o3)cc12 [BHBA-036, 3-Chloro-4-(5-(4,7-dimethylbenzofuran-2-yl)-1,3,4-oxadiazol-2-yl)benzoic acid] |
| 7.77 | 7.17 | 4 | 7.77 | 1 |  |  | O=C(O)c1ccc(-c2noc(-c3cc4c(Cl)ccc(Cl)c4o3)n2)c(Cl)c1 [BHBA-012, 3-Chloro-4-(5-(4,7-dichlorobenzofuran-2-yl)-1,2,4-oxadiazol-3-yl)benzoic acid] |
| 7.80 | 6.80 | 10 | 7.44 | 2 |  |  | Cc1ccc(C)c2oc(-c3nc(-c4ccc(C(=O)O)cc4Br)no3)cc12 [BHBA-003, 3-Bromo-4-(5-(4,7-dimethylbenzofuran-2-yl)-1,2,4-oxadiazol-3-yl)benzoic acid] |
